US12336996B2, “Drug combination containing TLR7 agonist” (Chia Tai Tianqing Pharmaceutical Group Co., Ltd., priority 2019, dated 2025)

Tests used:
HBV [1] = assay: AAV mice study: serum HBV DNA copy number by fluorescence quantitative PCR; assay type: in vivo, C57BL/6 mice; conditions: for HBV DNA (result in words): over a 42-day treatment period, AAV mice; for HBV DNA replication level in mouse serum (treatment period): rAAV8-1.3HBV mice, i.g., ETV 0.0032 (1 W) & 0.001 (2-6 W) mg/kg qd, TLR7 agonist 20 mg/kg tiw
Experimental: Male C57BL/6 mice (Shanghai Slac Laboratory Animal Co., Ltd.) aged 6-8 weeks were taken, and rAAV8-1.3HBV virus (FivePlus Institute of Molecular Medicine, Beijing) was injected into the C57BL/6 mice via tail veins at a dose of 1×10^11 vg. Blood was collected from the orbit at week 2 and week 4 after the virus was injected. Serum was separated, and HBV DNA copy number in serum were measured to determine whether the model was successfully constructed or not. Mice were randomized according to the HBV DNA copy number into vehicle control group, TLR7 agonist group (20 mg/kg, tiw), entecavir (ETV) group (0.0032 (week 1, 1 W) & 0.001 (week 2-6, 2-6 W) mg/kg, qd), and TLR7 agonist and ETV combination group, each group containing 6 mice. The mice in each group were administered intragastrically for 6 weeks, and the administration was stopped for 3 week. Blood was collected from the orbit at weeks 1, 2, 3, 4, 5 and 6 during the administration period and weeks 1, 2 and 3 during the withdrawal period, and serum was separated. The HBV DNA copy number was determined by fluorescence quantitative PCR.
• i. Vehicle control group; • ii. Monotherapy group: entecavir; • iii. Monotherapy group: TLR7 agonist; • iv. Combination group (combo): TLR7 agonist and entecavir;
The test results were evaluated by Jin equation. The Jin equation is a modified method based on the Burgi method, and is also referred to the probability addition method:
The combination efficacy is calculated according to the following equation: q=EA+B/(EA+EB−EA×EB)
wherein EA denotes the efficacy of drug A monotherapy; EB denotes the efficacy of drug B monotherapy; EA+B denotes the efficacy of the combination of drugs A and B.
The significance of q: 0.85 to 1.15 indicates simple addition; 1.15 to 20 indicates enhancement; greater than 20 indicates significant enhancement; 0.85 to 0.55 indicates antagonism; less than 0.55 indicates significant antagonism. The q value takes the absolute value.

HBV [2] = assay: Example 2: clinical study of TLR7 agonist combined with entecavir in chronic hepatitis B patients; assay type: in vivo, human; conditions: TLR7 agonist 1.0-1.8 mg once weekly, entecavir 0.5 mg/day, 24 weeks
Experimental: [drawing 54] (2-butoxy-7-(4-(pyrrolidin-1-ylmethyl) benzyl)-5H-pyrrolo[3,2-d]pyrimidin-4-amine); see WO2016023511 for the preparation method. The compound was prepared into tablets with strength of 0.2 mg or 0.5 mg. • Entecavir: commercially available entecavir tablets with strength of 0.5 mg. Commercially available entecavir tablets include, but are not limited to, entecavir dispersible tablets (Runzhong). • Placebo: a placebo for TLR7 agonist. 2. Enrolled Subjects
The subject should meet all of the following criteria: • 1) Male patients or non-pregnant, non-lactating female patients aged 18-65 years (inclusive); • 2) Serum virology: persistent positive serum HBsAg for 6 months or more, or with evidence of chronic hepatitis B for 6 months; • 3) Previously treated patients: historical HBV DNA inhibition less than the lower limit of normal 24 weeks before enrollment, and HBV DNA inhibition defined as <69 IU/mL determined by a Roche reagent during screening; Fibroscan ≤9.0 Kpa (fasting), and ALT≤5×ULN; • 4) Previously untreated patients: HBV DNA >10^5 copies/mL (or >20000 IU/mL) for HBeAg-positive chronic hepatitis B patients or HBV DNA >10^4 copies/mL (or >2000 IU/mL) for HBeAg-negative patients as determined by Roche's Cobas Taqman real-time quantitative PCR test v2.0, with the lower limit of detection being 20 IU/mL; Fibroscan ≤12.4 Kpa (fasting), and 1×ULN≤ALT≤5×ULN. […] 3. […]

[3] = withdrawal period day 49, after 6 weeks of i.g. administration
[4] = withdrawal period day 56, after 6 weeks of i.g. administration
[5] = withdrawal period day 63, after 6 weeks of i.g. administration

| Structure (SMILES) | HBV DNA (result in words) (HBV [1]) | HBV DNA replication level in mouse serum (treatment period) (HBV [1]; treatment period day 0) [logic lU/mL] | HBV DNA replication level in mouse serum (treatment period) (HBV [1]; treatment period day 7) [logic lU/mL] | HBV DNA replication level in mouse serum (treatment period) (HBV [1]; treatment period day 14) [logic lU/mL] | HBV DNA replication level in mouse serum (treatment period) (HBV [1]; treatment period day 21) [logic lU/mL] | HBV DNA replication level in mouse serum (treatment period) (HBV [1]; treatment period day 28) [logic lU/mL] | HBV DNA replication level in mouse serum (treatment period) (HBV [1]; treatment period day 35) [logic lU/mL] | HBV DNA replication level in mouse serum (treatment period) (HBV [1]; treatment period day 42) [logic lU/mL] | HBV DNA replication level in mouse serum (withdrawal period) (HBV [1]; [3]) [log10 IU/mL] | HBV DNA replication level in mouse serum (withdrawal period) (HBV [1]; [4]) [log10 IU/mL] | HBV DNA replication level in mouse serum (withdrawal period) (HBV [1]; [5]) [log10 IU/mL] | HBV DNA replication (result in words) (HBV [2]) |
| --- | --- | --- | --- | --- | --- | --- | --- | --- | --- | --- | --- | --- |
| CCCCOc1nc(N)c2[nH]cc(Cc3ccc(CN4CCCC4)cc3)c2n1 [TLR7 agonist, 2-butoxy-7-(4-(pyrrolidin-1-ylmethyl)benzyl)-5H-pyrrolo[3,2-d]pyrimidin-4-amine] | significantly reduced | 7.53 ± 0.15 | 6.64 ± 1.33 | 4.55 ± 1.41 | 4.13 ± 0.67 | 3.64 ± 0.21 | 3.61 ± 0.24 | 3.41 ± 0.33 | 4.37 ± 0.48 | 4.86 ± 0.41 | 5.26 ± 0.39 | achieved inhibition |
| C=C1[C@H](CO)[C@@H](O)C[C@@H]1n1cnc2c(=O)[nH]c(N)nc21 [entecavir, 2-amino-9-[(1S,3R,4S)-4-hydroxy-3-hydroxymethyl-2-methylenecyclopentyl]-1,9-dihydro-6H-purin-6-one] | significantly reduced | 7.53 ± 0.15 | 5.27 ± 0.18 | 5.66 ± 0.14 | 5.96 ± 0.28 | 5.34 ± 0.43 | 5.62 ± 0.36 | 6.44 ± 0.46 | 6.97 ± 0.72 | 7.32 ± 0.73 | 7.33 ± 0.80 | inhibitory effects |
